# Reference: paper PMC9034162, “Development of pyrazoline-based derivatives as aminopeptidase N inhibitors to overcome cancer invasion and metastasis” (RSC Advances, 2021)
# Assays:
# porcine APN = molecular target: T1, porcine APN (Sus scrofa, UniProt P15145); experiment: Enzymatic inhibition assay against APN in vitro; assay type: biochemical; conditions: for IC50: soluble APN from porcine kidney microsomes, L-Leu-p-nitroanilide substrate, pH 7.2, 37 °C 30 min, mean ± SD, triplicate
# T1 construct: soluble APN from porcine kidney microsomes (Biocol) was used as enzyme; purchased Biocol; host or cells: porcine kidney microsomes (tissue-derived)
# T1 sequence (P15145 1-963): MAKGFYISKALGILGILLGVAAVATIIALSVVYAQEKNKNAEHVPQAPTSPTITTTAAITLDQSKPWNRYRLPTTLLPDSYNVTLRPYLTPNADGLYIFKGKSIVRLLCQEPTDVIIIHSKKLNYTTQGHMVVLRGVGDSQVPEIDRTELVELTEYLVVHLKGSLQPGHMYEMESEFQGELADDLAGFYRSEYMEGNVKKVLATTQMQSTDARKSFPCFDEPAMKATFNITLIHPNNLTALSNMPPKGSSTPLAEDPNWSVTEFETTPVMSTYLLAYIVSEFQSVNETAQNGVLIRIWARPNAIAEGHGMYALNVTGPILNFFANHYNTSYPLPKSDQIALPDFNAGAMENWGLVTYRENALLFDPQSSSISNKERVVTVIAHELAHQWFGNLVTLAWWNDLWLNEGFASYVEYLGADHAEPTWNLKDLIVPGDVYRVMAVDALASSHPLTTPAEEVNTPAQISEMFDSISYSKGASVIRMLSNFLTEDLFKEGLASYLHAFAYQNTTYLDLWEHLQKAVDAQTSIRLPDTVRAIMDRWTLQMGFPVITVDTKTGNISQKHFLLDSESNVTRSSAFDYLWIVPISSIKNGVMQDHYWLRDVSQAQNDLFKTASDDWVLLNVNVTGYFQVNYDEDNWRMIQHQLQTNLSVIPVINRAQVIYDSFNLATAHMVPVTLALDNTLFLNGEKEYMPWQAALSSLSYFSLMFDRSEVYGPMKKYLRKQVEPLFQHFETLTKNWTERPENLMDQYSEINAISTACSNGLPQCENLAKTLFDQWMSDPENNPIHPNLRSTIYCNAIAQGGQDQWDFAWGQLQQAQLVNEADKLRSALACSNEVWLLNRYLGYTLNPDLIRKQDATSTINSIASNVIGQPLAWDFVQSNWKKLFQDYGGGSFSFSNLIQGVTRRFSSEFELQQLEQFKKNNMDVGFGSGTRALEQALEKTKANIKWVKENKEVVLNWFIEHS
# Protocol: In the enzymatic inhibition assay against APN in vitro, L-Leu-p-nitroanilide was used as substrate and soluble APN from porcine kidney microsomes (Biocol) was used as enzyme. 50 mM PBS with pH 7.2 was used as buffer solution. Briefly, inhibitors (40 μL), PBS (145 μL), substrate (5 μL, 16 mmol L^−1) and APN solution (10 μL, 0.15 IU mL^−1) were added into 96-well plates. The mixture was incubated at 37 °C for 30 min. The optical density resulting from the hydrolysis product p-nitroanilide was measured at 405 nm with a plate reader (Varioskan, Thermo, USA).
# [1] = Body weight monitoring in H22 pulmonary metastasis model; assay type: in vivo; conditions: 60 mg kg^−1 d^−1 intraperitoneally for 12 days, Kunming mice, weights every two days
# Protocol: (§1) All animal procedures were performed in accordance with the Guidelines for Care and Use of Laboratory Animals of Shandong University and approved by the Animal Ethical and Welfare Committee (AEWC, China). The mice hepatoma H22 cell line was our laboratory-owned and 6 week old male Kunming mice were purchased from Center for New Drugs Evaluation of Shandong University, China. Firstly, H22 cells suspension (0.1 mL, 7.5 × 10^7 mL^−1) was injected via tail vein to establish a mice H22 pulmonary metastasis model. Subsequently, the mice were randomly divided into treatment and control groups. […] The body weights were monitored every two days. Finally, the mice were sacrificed and the lungs were removed and fixed in Bouin's solution. After 24 h, the metastasis nodes on the surface of pulmonary lobes were counted.
# U937 = experiment: Anti-proliferation assay (MTT); assay type: cell-based; conditions: Homo sapiens, U-937, 48 h, mean ± SD, triplicate, read-out: IC50 anti-proliferative, U937
# Protocol: (§2) The anti-proliferative activities of the selected compounds were evaluated using the MTT method. All the tumor cell lines were cultured in RPMI-1640 medium with 10% FBS at 37 °C in 5% CO2 humidified incubator. Firstly, cells (100 μL) were plated in 96-well plates and allowed to grow for 4 h. Then different concentrations of inhibitors (100 μL) were added. After incubation for 48 h, MTT solution (20 μL per well, 5 mg mL^−1) was added and the mixture was incubated for additional 4 h. Subsequently, the medium were poured off and DMSO (200 μL) was added to dissolve the formed formazan. After shaking for 15 min, the optical density values were measured using a plate reader at 570 nm (Varioskan, Thermo, USA).
# HepG2 = experiment: Anti-proliferation assay (MTT); assay type: cell-based; conditions: Homo sapiens, 48 h, mean ± SD, triplicate, read-out: IC50 anti-proliferative, HepG2
# Protocol: as §2
# K562 = experiment: Anti-proliferation assay (MTT); assay type: cell-based; conditions: Homo sapiens, 48 h, mean ± SD, triplicate, read-out: IC50 anti-proliferative, K562
# Protocol: as §2
# ES-2 = experiment: Anti-proliferation assay (MTT); assay type: cell-based; conditions: Homo sapiens, 48 h, mean ± SD, triplicate, read-out: IC50 anti-proliferative, ES-2
# Protocol: as §2
# PC-3 = experiment: Anti-proliferation assay (MTT); assay type: cell-based; conditions: Homo sapiens, 48 h, mean ± SD, triplicate, read-out: IC50 anti-proliferative, PC-3
# Protocol: as §2
# PLC/PRF/5 = experiment: Anti-proliferation assay (MTT); assay type: cell-based; conditions: Homo sapiens, 48 h, mean ± SD, triplicate, read-out: IC50 anti-proliferative, PLC/PRF/5
# Protocol: as §2
# mice H22 hepatoma cells = experiment: In vivo anti-metastatic assay, mice H22 hepatoma cell pulmonary metastasis model; conditions: 60 mg kg^−1 d^−1 intraperitoneally for 12 days, Kunming mice, H22 cells via tail vein
# Protocol: as §1
# ES-2 cells invasion = experiment: In vitro anti-invasion assay (matrigel transwell); assay type: cell-based
# Protocol: The carbonate membrane coated with matrigel in the upper chamber of transwell insert (BD BioCoat™ Matrigel™ Invasion Chambers) was rehydrated with RPMI-1640 culture medium (500 μL) containing 1% FBS for 2 h. After removing the medium, the upper and lower chambers were added the RPMI-1640 culture medium (100 μL) with 1% FBS containing the tested compounds and the RPMI-1640 culture medium (750 μL) with 10% FBS, respectively. Then, ES-2 cells suspending in the RPMI-1640 culture medium containing 1% FBS (400 μL, 2.5 × 10^5 cells per mL) were added into the upper chambers. The system was placed at 37 °C in 5% CO2 for 8 h. The ES-2 cells could invade the matrigel and migrate from the upper surface of the carbonate membrane into the lower surface of that. ES-2 cells on the upper surface of the carbonate membrane were erased by cotton swabs. Then, ES-2 cells on the lower surface were fixed with methanol, stained with 0.1% crystal violet, of which the photographs were taken under an inverted microscope. The average numbers of ES-2 cells in five random fields (100×) per well were counted. The inhibition rate of ES-2 cells invasion was calculated as follows: (A − B)/A × 100%, A means the number of ES-2 cells in the control group, and B means the number of ES-2 cells in the treated group. The experiments were repeated three times.
Structure (SMILES),melting point [°C],IC50 (porcine APN) [nM],further results
"COc1ccccc1C1=NN(C(N)=O)C(c2ccccc2OCC(=O)NN)C1 (stereo not shown) [compound 2o, 5-(2-(2-Hydrazinyl-2-oxoethoxy)phenyl)-3-(2-methoxyphenyl)-4,5-dihydro-1H-pyrazole-1-carboxamide]",156.6 to 158.2,30200 ± 1900,
"NC(=O)N1N=C(c2ccccc2Br)CC1c1ccccc1OCC(=O)NO (stereo not shown) [compound 2a, 3-(2-Bromophenyl)-5-(2-(2-(hydroxyamino)-2-oxoethoxy)phenyl)-4,5-dihydro-1H-pyrazole-1-carboxamide]",168.4 to 170.2,150 ± 30,
COc1cccc(C2=NN(C(N)=O)C(c3ccccc3OCC(=O)NO)C2)c1 (stereo not shown) [2e],208.5 to 210.3,320 ± 30,
"NC(=O)N1N=C(c2ccccc2)CC1c1ccccc1OCC(=O)NO (stereo not shown) [compound 1, reference compound]",,150 ± 20,
NC(=O)N1N=C(c2ccc3ccccc3c2)CC1c1ccccc1OCC(=O)NO (stereo not shown) [2n],166.2 to 168.2,2500 ± 100,
NC(=O)N1N=C(c2ccccc2Cl)CC1c1ccccc1OCC(=O)NO (stereo not shown) [compound 2i],172.2 to 174.1,100 ± 10,
NC(=O)N1N=C(c2cccc(Br)c2)CC1c1ccccc1OCC(=O)NO (stereo not shown) [2b],164.4 to 166.4,260 ± 50,
"CC(C)C[C@H](NC(=O)[C@@H](O)[C@H](N)Cc1ccccc1)C(=O)O [Bestatin, reference compound]",,,body weight loss [1]: no significant body weight loss; IC50 (U937): > 500000 nM; IC50 (HepG2): > 500000 nM; IC50 (K562): > 500000 nM; IC50 (ES-2): > 500000 nM; IC50 (PC-3): > 500000 nM; IC50 (PLC/PRF/5): > 500000 nM
NC(=O)N1N=C(c2ccc(Br)cc2)CC1c1ccccc1OCC(=O)NO (stereo not shown) [2c],190.2 to 192.2,2100 ± 200,
NC(=O)N1N=C(c2c(Cl)cccc2Cl)CC1c1ccccc1OCC(=O)NO (stereo not shown) [compound 2k],200.2 to 202.2,64 ± 10,"body weight loss [1]: no significant body weight loss; fold more potent against APN than bestatin (porcine APN; IC50 ratio vs bestatin): over 140 fold; fold more potent against APN than compound 1 (porcine APN; IC50 ratio vs compound 1): > 2 fold; in vivo anti-metastasis effect (mice H22 hepatoma cells): effectively prevent the pulmonary metastasis; anti-invasion activity at 10 μM compared with 100 μM of bestatin (ES-2 cells invasion; ES-2 cells, 10 μM of 2k vs 100 μM bestatin): comparable, if not better; anti-invasion effect at 100 μM compared with bestatin (ES-2 cells invasion; ES-2 cells, both at 100 μM, P < 0.05): significantly better than that of bestatin; inhibition of ES-2 cells invasion (ES-2 cells invasion; transwell with matrigel, 8 h, several concentrations): inhibit the ES-2 cells invasion in a concentration dependent manner; IC50 (U937): 49200 ± 3800 nM; IC50 (HepG2): 101000 ± 4900 nM; IC50 (K562): 15600 ± 2200 nM; IC50 (ES-2): 141000 ± 3800 nM; IC50 (PC-3): 56100 ± 3100 nM; IC50 (PLC/PRF/5): 106000 ± 4700 nM"
NC(=O)N1N=C(c2ccc(Cl)cc2Cl)CC1c1ccccc1OCC(=O)NO (stereo not shown) [2l],196.3 to 198.2,420 ± 30,
NC(=O)N1N=C(c2c(F)cccc2F)CC1c1ccccc1OCC(=O)NO (stereo not shown) [2j],186.2 to 188.2,120 ± 10,
NC(=O)N1N=C(c2ccccc2F)CC1c1ccccc1OCC(=O)NO (stereo not shown) [2h],124.4 to 126.1,150 ± 10,
COc1ccccc1C1=NN(C(N)=O)C(c2ccccc2OCC(=O)NO)C1 (stereo not shown) [2d],198.4 to 200.2,270 ± 10,
COc1ccc(C2=NN(C(N)=O)C(c3ccccc3OCC(=O)NO)C2)cc1 (stereo not shown) [2f],168.4 to 170.2,12500 ± 800,
Cc1ccccc1C1=NN(C(N)=O)C(c2ccccc2OCC(=O)NO)C1 (stereo not shown) [2g],144.5 to 146.2,110 ± 10,
NC(=O)N1N=C(c2cccc3ccccc23)CC1c1ccccc1OCC(=O)NO (stereo not shown) [2m],204.2 to 206.2,210 ± 40,fold more potent against APN than 2n (porcine APN; IC50 ratio vs 2n): over 10 fold
